Test results published in patent US20260053778A1, “USE OF NOVEL PPAR ACTIVITY MODULATOR FOR PREVENTION, AMELIORATION OR TREATMENT OF DEGENERATIVE BRAIN DISEASES” (POSTECH RESEARCH AND BUSINESS DEVELOPMENT FOUNDATION, priority 2022, published 2026).

Legend:
[1] = test system: BV2 cell line; experiment: Cell viability assay (MTT), BV2; type: cell-based, mouse; conditions: BV2, 48 h, at higher concentrations
Method: Cell viability was measured by a chromogenic assay that biologically reduces 3-(4,5-dimethyl-thiazol-2-yl)-2,5-diphenyltetrazolium bromide (MTT) to formazan in living cells. Briefly, cells were cultured in 96-well plates in a final volume of 100 μL. After 24 h, the culture medium was replaced with fresh medium containing DTMB compound, and the cells were cultured for another 48 h. Next, MTT (dissolved in PBS at 5 mg/mL) was added to the culture medium. The cells were cultured in the dark at 37° C. for 1 h, and then the supernatant was removed from the wells. The formazan crystals were dissolved by adding total MTT solvent (4 mM HCl and 0.1% Nonidet P-40, both dissolved in isopropanol), and the absorbance was measured at 570 nm using a microplate reader, Infinite 200 Pro NanoQuant microplate reader (TECAN, Switzerland).

[2] = test system: 5×FAD mice; experiment: RT-PCR of adult microglia isolated from brains of treated mice; type: in vivo, mouse; conditions: microglia isolated from 5×FAD mice administered DTMB
Method: To elucidate whether the gliosis reduction effect of DTMB administration confirmed in Example 6 was due to functional changes in microglia, brain tissues from mice administered DTMB were extracted, microglia were isolated, and the expression of genes related to inflammation and activation in microglia was analyzed to what extent they changed.
To isolate adult microglia from the brains of 5×FAD mice treated with DTMB or vehicle, a magnetic-activated cell sorting (MACS) system was used. Whole brain tissue was dissociated to the single-cell level using the gentleMACs dissociation kit (Miltenyi Biotech, Bergisch Gladbach, Germany) according to the manufacturer's instructions. To isolate the immune cell fraction, a 47% Percoll concentration gradient was applied to the single-cell mixture and centrifuged at 2,000 rpm for 10 min. Adult microglia were isolated by LS column after incubation with anti-CD11b MicroBeads (Miltenyi Biotech). RT-PCR was performed using the isolated adult microglia to analyze the expression of microglial activation and inflammation-related genes. The sample size was 3 mice per group.

[3] = test system: 5×FAD Alzheimer's dementia-induced mice; experiment: Immunohistochemistry of Aβ aggregates in brain tissue; type: in vivo, mouse; conditions: hippocampus and cerebral cortex regions, 6e10 immunohistochemistry, 5×FAD mice, DTMB 10 mg/kg orally
Method: In the case of Alzheimer's dementia, an increase in the formation of Aβ aggregates in brain tissue is observed as a common pathological phenomenon. Therefore, to determine whether DTMB administration inhibited the formation of Aβ aggregates, the amount of AB aggregates in the hippocampus and cerebral cortex, which are closely related to memory ability, was measured using immunochemical staining in 5×FAD Alzheimer's dementia-induced mice.
The mice were perfused with ice-cold phosphate-buffered saline (PBS). The brain tissue was used separately for molecular analysis or immunohistochemistry. The right hemisphere was fixed with 4% PFA and transferred to a sucrose solution (30%) for 24 hours. The right hemisphere was frozen in the optimal cutting temperature compound of dry ice. Coronal sections (18 μm thick) including the hippocampus were cut and prepared on slide glass. The tissue sections were then permeabilized and blocked with blocking solution (5% goat serum and 0.2% Triton X-100 in PBS) for 1 h at room temperature. Primary antibody incubation was performed overnight at 4° C. using anti-6e10 antibody (Biolegend, Japan, 1:100). After washing, the sections were incubated with the appropriate secondary antibody (1:500) for 1 h at room temperature. […] Fluorescence was measured by calculating the % area and analyzed using ImageJ. […]

[4] = test system: NF-κB; experiment: NF-κB gene expression by qPCR after MG132 and DTMB; type: cell-based; conditions: MG132 (20 μM) 6 hours, DTMB (25 μM) 24 hours
Method: In addition, to inhibit proteasomal degradation, cells were treated with MG132 (20 μM) for 6 hours and DTMB (25 μM) for 24 hours, and then the gene expression level of NF-κB was confirmed by qPCR analysis. As shown in the results of FIGS. 2L and 2M, this response was mediated by proteasomal degradation rather than transcriptional inhibition, since there was no change in the mRNA level of NF-κB.

[5] = target: T1, PPARγ (Homo sapiens, UniProt P37231); experiment: GAL4-transactivation assay in HEK293A cells, PPARγ; type: cell-based; conditions: GAL4 reporter, 24 h, compared with rosiglitazone
T1 construct: expressed in transfected cells; host or cells: HEK293A
T1 sequence (P37231 1-505): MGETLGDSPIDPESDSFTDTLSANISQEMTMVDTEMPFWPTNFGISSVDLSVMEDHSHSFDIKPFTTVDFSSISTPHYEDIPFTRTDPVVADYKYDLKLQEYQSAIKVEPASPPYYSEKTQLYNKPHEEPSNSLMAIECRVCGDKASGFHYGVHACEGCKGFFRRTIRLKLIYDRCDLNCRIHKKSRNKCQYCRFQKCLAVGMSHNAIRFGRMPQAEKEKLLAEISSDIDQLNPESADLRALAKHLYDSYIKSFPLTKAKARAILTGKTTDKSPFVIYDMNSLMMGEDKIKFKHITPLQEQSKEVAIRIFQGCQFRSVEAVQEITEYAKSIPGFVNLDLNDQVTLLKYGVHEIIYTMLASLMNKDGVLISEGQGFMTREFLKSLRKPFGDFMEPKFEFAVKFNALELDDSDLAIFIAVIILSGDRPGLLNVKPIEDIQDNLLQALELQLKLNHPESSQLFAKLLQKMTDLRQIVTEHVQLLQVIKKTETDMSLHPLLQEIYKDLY
Method: A GAL4-transactivation assay experiment was performed to determine whether the drug was bound to the PPAR ligand binding site. HEK293A cells were transfected with GAL4-reporter plasmid and pGL4.74 (Promega, Madison, WI, USA) as an internal standard via electroporation using the Neon Transfection System (Invitrogen, Carlsbad, CA, USA). All vectors were kindly provided by Professor Kanno Yuichiro, Toho University, Japan. After overnight culture, cells were treated with DTMB and each positive control compound for 24 h. Cells were then harvested, resuspended in luciferase lysis buffer (Promega), and incubated on ice for 10 min. Cell debris was removed by centrifugation at 20,000×g, 4° C. for 10 min, and the supernatant was used for the luciferase assay. Luciferase activity was measured using the Dual Luciferase Reporter Assay System (Promega) according to the manufacturer's instructions. In the measurement experiment, firefly luciferase activity was normalized to Renilla luciferase activity. To investigate the concentration-dependent effect of DTMB drug, EC50 values were measured by treating various concentrations of DTMB.

COc1ccc(-c2cc(=O)oc3c(C)c(OC(=O)[C@H](Cc4c[nH]c5ccccc45)NC(=O)OC(C)(C)C)ccc23)cc1 [DTMB, [4-(4-Methoxyphenyl)-8-methyl-2-oxochromen-7-yl](2S)-3-(1H-indol-3-yl)-2-[(2-methylpropan-2-yl)oxycarbonylamino]propanoate]
Cytotoxicity (MTT) [1]: no cytotoxicity | Gene expression of Cxcl10 [2]: decreased | Gene expression of IL-1β [2]: decreased | Gene expression of IL-6 [2]: decreased | Gene expression of Iba-1 [2]: decreased | Gene expression of Itgax2 [2]: decreased | Gene expression of TNF-α [2]: decreased | Gene expression of Trem2 [2]: decreased | Gene expression of clec7a [2]: decreased | Amount of Aβ aggregates [3]: significantly reduced | mRNA level of NF-κB [4]: no change | PPARγ activation versus positive control [5]: activated at a slightly higher concentration than GW501516 and rosiglitazone, respectively
